Reference: patent US5562922A, “Drug incorporating and release polymeric coating for bioprosthesis” (Cedars-Sinai Medical Center, priority 1995, dated 1996)
Entries after “also recorded” stand apart in the source; their conditions may differ. Values belong to the compound of their own block, whether it stands above or below them.

What was measured:
[1] = system: thrombosis on the catheter; conditions: released from intravascular catheters; cited from earlier work
intimal hyperplasia = conditions: polyvinyl alcohol based polymer beads, perivascular tissue, rats; cited from earlier work
[2] = set-up: species or system New Zealand white rabbits; conditions: rabbit
Method: (§1) For these experiments, nitinol stents were coated with Tecoflex™, to a thickness of about 50-100 microns, and then incubated in a solution containing unlabelled and tritiated forskolin with a specific activity of 25 μCi/mg. Resulting stents contained approximately 1.5 mg. of forskolin in approximately 20 mg of 50-100 micron thick polymer matrix coating.
(§2) Instantaneous blood release rates were calculated by the following formula using the conservation of mass principle: [formula] where dM=change in mass, dT=change in time, M=mass, Q=flow, C1=upstream concentration, and C2=downstream concentration. Scintillation counts were then adjusted for measured background and efficiency. The amount of forskolin present was calculated by comparison of tissue activity to a 25 uCi/mg standard. For comparison of tissue and blood forskolin concentrations, blood levels were divided by specific gravity of rabbit blood (1.050 g/ml). Statistical analysis to assess differences between the multiple sites of the tissue samples was by one-way analysis of variances (ANOVA). If significant differences were found (p<0.05), pairwise comparisons were then performed using the t-test within ANOVA corrected for multiple comparisons (Bonferoni/Least Significant Difference tests).

carotid artery [3] = system: carotid artery; set-up: species or system New Zealand white rabbits; conditions: rabbit, in vivo
Method: as §1, §2

carotid artery [4] = assay: Carotid artery flow after stent delivery; format: in vivo, New Zealand white rabbits; conditions: 10.3±4.2 ml/min before
Method: as §1

carotid artery [5] = assay: Rabbit carotid crush injury, low flow thrombosis model; format: in vivo, New Zealand white rabbits
From the text: To evaluate the thrombogenicity of polyurethane stent coatings, a rabbit carotid crush injury, low flow thrombosis model was developed. Briefly, New Zealand white rabbits (n=14) underwent anesthesia with ketamine and xylazine followed by surgical exposure of the right carotid and left femoral arteries. A 6 french sheath was placed in the left femoral artery and a 2.0 mm transit time flow probe (Transonics) was placed in the distal carotid artery. No anticoagulant was given. Repeated crush injury with a plastic coated clamp was performed at similar force for fifteen times over a one cm. distance usually producing a small decrement in flow rate. After 5 minutes, a bare or polyurethane coated nitinol stent was advanced to straddle the area of injury and balloon expanded. After a 15 minute equilibration period during which a 3.0 mm balloon occluder was placed proximal to the stent, the occluder was inflated to reduce flow to 4 ml/min. (40% of baseline). Continuous pressure monitoring via pressure transducer placed on line in the occluder inflation system was performed to ensure maintenance of consistent occlusion.
Continuous carotid artery flow and mean blood pressure were recorded by strip chart recorder. If the flow remained <0.5 ml/min, for 5 minutes, the artery was considered occluded and experiment terminated. […] After euthanasia, the artery was removed and cut longitudinally with a scalpel. The polyurethane coating was visually inspected for defects. Presence of white or red thrombus was also noted.

[6] = Water solubility (in words); format: physicochemical
[7] = In vitro drug release from polyurethane-coated stents, coils or films; conditions: for Total: total content; for initial release rate / release rate: release from polyurethane, Table 1A
Method: Drug incorporation into polyurethane-coated articles
Nitinol stents or stainless steel coils with surface area similar to nitinol stents were coated with Tecoflex 85A™ polyurethane to a thickness of about 50 microns in accordance with the manufacture's instructions for coating metal surfaces.
The drug loading procedure is carried out as follows: The desired compound is dissolved in a solution containing 3 parts ethanol and 1 part tetrahydrofuran (100 mg/ml for rhodamine B and 50 mg/ml for fluorescein dilaurate and forskolin).
When a hydrophilic compound such as hirulog was loaded in the polyurethane,the polyurethane was first loaded with sphingosine or any charged lipophilic molecule as described above. With this modification, the polyurethane will swell in organic solutions containing up to 10% water. The desired compound was then dissolved as 50 mg/ml in ethanol/tertrahydrofuran/water in a ratio of 65/25/1-20. The water content will vary according to the solubility of the desired compound in this solvent system.
After incubation, all stents, coils, and films were dried overnight at 40° C. at reduced pressure. To evaluate the ability of a charged lipid soluble drug to facilitate uptake and release of a water soluble compound, thin films containing 20 mg of polyurethane with or without 1 mg of sphingosine were produced by pour plating and drying overnight at 40° C. under reduced pressure. The films were then incubated in a solution of fluorescein disodium, a water soluble dye. After incubation, films were dried as described above.
After a 15 minute preincubation (wash step), stents, coils, or films were incubated for 2-3 days in 2 ml. of phosphate buffered saline (pH=7.4) or 5% bovine serum albumin in PBS at 37° C. in a shaking water bath. […] At the end of incubations, the polyurethane was dissolved in tertrahydrofuran and an aliquot analyzed to determine the quantity of compound remaining in the polymer. […] Solutions containing fluorescein dilaurate required addition of 200 μl of 10M sodium hydroxide to convert the fluorescein dilaurate into its colored form (release the two 16-carbon fatty acid dilaurate chains from the water soluble fluorescein molecule). Forskolin content was determined by scintillation counting.

[8] = Uptake by polymer, elution from polymer and tissue retention compared with forskolin; conditions: compared to forskolin
[9] = Etretinate delivery to vessel wall from coated stent (similar model); conditions: rabbit
[10] = Film + SPH (sphingosine), n = 2, buffer not given
[11] = Film without sphingosine, n = 2, buffer not given

Compound: heparin
thrombosis on the catheter [1]: sufficient to decrease thrombosis on the catheter
intimal hyperplasia (intimal hyperplasia): inhibited intimal hyperplasia

Compound: CCOC(=O)/C=C(C)/C=C/C=C(C)/C=C/c1c(C)cc(OC)c(C)c1C [Etretinate]
elution rate from the polymer [8]: decreased elution rate from the polymer
tissue retention [8]: increased tissue retention
uptake by the polymer [8]: increased uptake by the polymer
concentration at 72 h ([9]; vessel wall): 185000 ng/g
concentration at 24 h ([9]; vessel wall media): 250000 ng/g

Compound: O=C1OC2(c3ccc(O)cc3Oc3cc(O)ccc32)c2ccccc21 [Fluorescein disodium, fluorescein disodium]
water solubility [6]: water soluble
Release Rate Day 1 [7, 10]: 16.0 µg/h
Release Rate Day 2 [7, 10]: 4.0 µg/h
Release Rate Day 3 [7, 10]: 2.0 µg/h
Total ([7]; Film + SPH (sphingosine), n = 2): 1.1 mg
Release Rate Day 1 [7, 11]: 4.0 µg/h
Release Rate Day 2 [7, 11]: 1.8 µg/h
Release Rate Day 3 [7, 11]: 1.8 µg/h
Total ([7]; Film without sphingosine, n = 2): 0.3 mg
total content and delivery rate ([7]; with the addition of sphingosine (SPH) to the matrix): improved total content; also recorded: subsequently higher delivery rate

Further lines, with some results ahead:

in vivo release rate [2]: 7.0 µg/min
calculated instantaneous release rate into the bloodstream, initial ([2]; in vivo): 6900 ng/min
calculated instantaneous release rate into the bloodstream, over four hours ([2]; in vivo): 700 ng/min
peak forskolin blood level ([2]; in vivo): 140 ng/mL
immediate forskolin blood level ([2]; in vivo, 0 min): 57 ng/mL
blood level ([2]; in vivo, 24 h): 68 ± 18 ng/mL
concentration in adventitia overlying the stent relative to blood (carotid artery [3]): 360 times
concentration in adventitia overlying the stent relative to contralateral artery (carotid artery [3]): 305 times
concentration in media overlying the stent relative to blood (carotid artery [3]): 450 times
concentration in media overlying the stent relative to contralateral artery (carotid artery [3]): 385 times
forskolin levels in vessel proximal to, overlying and distal to stent (carotid artery [3]): significant levels of forskolin
washout from the vessel wall (carotid artery [3]): rapid
adventitia level in washout experiment, 2 hours (carotid artery [3]; 2 h): 1.7 ng/mg
media level in washout experiment, two hours (carotid artery [3]; 2 h): 1.2 ng FSK/mg tissue
other adjacent tissues level in washout experiment, two hours (carotid artery [3]; 2 h): < 0.6 ng/mg
adventitia level (carotid artery [3]; 24 h): 4.1±1.8 ng FSK/mg tissue
adventitia level in washout experiment, 24 hours (carotid artery [3]; 24 h): 0.1 ng/mg
adventitia tissue to blood ratio (carotid artery [3]; 24 h): 61±18
media level (carotid artery [3]; 24 h): 4.9±1.2 ng/mg tissue
media level in washout experiment, 24 hours (carotid artery [3]; 24 h): 0.2 ng FSK/mg
media tissue to blood ratio (carotid artery [3]; 24 h): 77±22
other adjacent tissues level in washout experiment, 24 hours (carotid artery [3]; 24 h): < 0.1 ng/mg
water solubility [6]: less soluble in aqueous solutions
Release Rate Day 1 ([7]; Stents, PBS, n = 3): 3.8 µg/h
Release Rate Day 2 ([7]; Stents, PBS, n = 3): 3.9 µg/h
Release Rate Day 3 ([7]; Stents, PBS, n = 3): 1.6 µg/h
Total ([7]; Stents, PBS, n = 3): 4.4 mg
in vitro release rate ([7]; in vitro, compared with in vivo): 0.5 µg/min
initial release rate / release rate [7]: slower release rate
Compound: C=C[C@@]1(C)CC(=O)[C@]2(O)[C@@]3(C)[C@@H](O)CCC(C)(C)[C@@H]3[C@H](O)[C@H](OC(C)=O)[C@@]2(C)O1 [Forskolin]
radial and longitudinal diffusion (carotid artery [3]): diffusion gradient in both longitudinal and radial directions away from the stent
carotid artery flow at 1 min (carotid artery [4]; 1 min after stent delivery, p<0.005): 15.9 ± 2.6 mL/min
carotid artery flow at 60 min (carotid artery [4]; 60 min after stent delivery, p<0.0001): 19.6 ± 4.4 mL/min
thrombosis of the stented segment (carotid artery [5]; compared to uncoated and coated stents): prevented thrombosis of the stented segment
effect on TCF and TTO (carotid artery [5]; forskolin impregnated into the polyurethane): remarkably increased the time to cyclic flow (TCF) and time to occlusion (TTO)
Time to Cyclic Flow (TCF) (carotid artery [5]; n = 5, p < 0.0001 compared to coated and uncoated (uncoated 16 ± 13, polymer coated 27 ± 17)): 208 ± 71 min
Time to Occlusion (TTO) (carotid artery [5]; n = 5, uncoated 19 ± 18, polymer coated 54 ± 27): > 240 min
stents exhibiting cyclic carotid blood flow (carotid artery [5]; number of forskolin impregnated stents, n = 5): one
visual inspection of thrombus (carotid artery [5]; uncoated: mixed red and white thrombus, coated: predominately white thrombus): red thrombus only; also recorded: Absence of platelet rich white thrombus

Release Rate Day 1 ([7]; Coil, PBS, n = 3): 37.0 µg/h
Release Rate Day 2 ([7]; Coil, PBS, n = 3): 5.2 µg/h
Total ([7]; Coil, PBS, n = 3): 1.5 mg
initial release rate / release rate [7]: highest initial release rate
Compound: CCN(CC)c1ccc2c(-c3ccccc3C(=O)O)c3ccc(=[N+](CC)CC)cc-3oc2c1 [Rhodamine B]

water solubility [6]: insoluble in water
Release Rate Day 1 ([7]; Coil, 5% BSA, n = 1): 3.4 µg/h
Release Rate Day 2 ([7]; Coil, 5% BSA, n = 1): 2.3 µg/h
Release Rate Day 1 ([7]; Film, 5% BSA, n = 2): 4.6 µg/h
Release Rate Day 2 ([7]; Film, 5% BSA, n = 2): 3.7 µg/h
initial release rate / release rate [7]: required 5% albumin to promote release
Compound: CCCCCCCCCCCC(=O)Oc1ccc2c(c1)Oc1cc(OC(=O)CCCCCCCCCCC)ccc1C21OC(=O)c2ccccc21 [Fluorescein dilaurate, fluorescein dilaurate]
